Assay results as given in ChEMBL document CHEMBL2434896, “Carbonic anhydrase inhibitors. Synthesis of heterocyclic 4-substituted pyridine-3-sulfonamide derivatives and their inhibition of the human cytosolic isozymes I and II and transmembrane tumor-associated isozymes IX and XII” (Eur J Med Chem, 2013).
pKi: −log10 of the molar value. Activity calls are given as the source filed them. No cut-off for these calls is given here.

Columns and labels:
[1] = tested on: Malme-3M; assay: Growth inhibition of human MALME-3M cells at 10 uM after 48 hrs by sulforhodamine B assay; type: functional; conditions: read-out: GI
[2] = tested on: LOX IMVI; assay: Growth inhibition of human LOXIMVI cells at 10 uM after 48 hrs by sulforhodamine B assay; type: functional
[3] = tested on: U-251; assay: Growth inhibition of human U251 cells at 10 uM after 48 hrs by sulforhodamine B assay; type: functional
[4] = tested on: SNB-75; assay: Growth inhibition of human SNB75 cells at 10 uM after 48 hrs by sulforhodamine B assay; type: functional
[5] = tested on: SNB-19; assay: Growth inhibition of human SNB19 cells at 10 uM after 48 hrs by sulforhodamine B assay; type: functional
[6] = tested on: SF-539; assay: Growth inhibition of human SF539 cells at 10 uM after 48 hrs by sulforhodamine B assay; type: functional
[7] = tested on: SF-295; assay: Growth inhibition of human SF295 cells at 10 uM after 48 hrs by sulforhodamine B assay; type: functional
[8] = tested on: SF-268; assay: Growth inhibition of human SF268 cells at 10 uM after 48 hrs by sulforhodamine B assay; type: functional
[9] = tested on: KM12; assay: Growth inhibition of human KM12 cells at 10 uM after 48 hrs by sulforhodamine B assay; type: functional
[10] = tested on: SW-620; assay: Growth inhibition of human SW620 cells at 10 uM after 48 hrs by sulforhodamine B assay; type: functional
[11] = tested on: HT-29; assay: Growth inhibition of human HT-29 cells at 10 uM after 48 hrs by sulforhodamine B assay; type: functional
[12] = tested on: HCT-15; assay: Growth inhibition of human HCT15 cells at 10 uM after 48 hrs by sulforhodamine B assay; type: functional; conditions: HCT-15, 48 h, read-out: GI
[13] = tested on: HCT-116; assay: Growth inhibition of human HCT116 cells at 10 uM after 48 hrs by sulforhodamine B assay; type: functional; conditions: HCT-116, 48 h, read-out: GI
[14] = tested on: HCC 2998; assay: Growth inhibition of human HCC2998 cells at 10 uM after 48 hrs by sulforhodamine B assay; type: functional
[15] = tested on: COLO 205; assay: Growth inhibition of human COLO205 cells at 10 uM after 48 hrs by sulforhodamine B assay; type: functional
[16] = tested on: NCI-H522; assay: Growth inhibition of human NCI-H522 cells at 10 uM after 48 hrs by sulforhodamine B assay; type: functional
[17] = tested on: NCI-H460; assay: Growth inhibition of human NCI-H460 cells at 10 uM after 48 hrs by sulforhodamine B assay; type: functional
[18] = tested on: NCI-H322M; assay: Growth inhibition of human NCI-H322M cells at 10 uM after 48 hrs by sulforhodamine B assay; type: functional; conditions: read-out: GI
[19] = tested on: NCI-H23; assay: Growth inhibition of human NCI-H23 cells at 10 uM after 48 hrs by sulforhodamine B assay; type: functional
[20] = tested on: NCI-H226; assay: Growth inhibition of human NCI-H226 cells at 10 uM after 48 hrs by sulforhodamine B assay; type: functional
[21] = tested on: HOP-62; assay: Growth inhibition of human HOP62 cells at 10 uM after 48 hrs by sulforhodamine B assay; type: functional
[22] = tested on: EKVX; assay: Growth inhibition of human EKVX cells at 10 uM after 48 hrs by sulforhodamine B assay; type: functional
[23] = tested on: A549; assay: Growth inhibition of human A549/ATCC cells at 10 uM after 48 hrs by sulforhodamine B assay; type: functional
[24] = tested on: SR; assay: Growth inhibition of human SR cells at 10 uM after 48 hrs by sulforhodamine B assay; type: functional; conditions: read-out: GI
[25] = tested on: RPMI-8226; assay: Growth inhibition of human RPMI8226 cells at 10 uM after 48 hrs by sulforhodamine B assay; type: functional
[26] = tested on: MOLT-4; assay: Growth inhibition of human MOLT4 cells at 10 uM after 48 hrs by sulforhodamine B assay; type: functional; conditions: MOLT-4, 48 h, read-out: GI
[27] = tested on: HL-60(TB); assay: Growth inhibition of human HL-60(TB) cells at 10 uM after 48 hrs by sulforhodamine B assay; type: functional
[28] = tested on: CCRF-CEM; assay: Growth inhibition of human CCRF-CEM cells at 10 uM after 48 hrs by sulforhodamine B assay; type: functional
[29] = molecular target: Carbonic anhydrase 9 (Homo sapiens, UniProt Q16790); assay: Inhibition of human carbonic anhydrase 9 after 15 mins by stopped flow CO2 hydration assay
[30] = tested on: T47D; assay: Growth inhibition of human T47D cells at 10 uM after 48 hrs by sulforhodamine B assay; type: functional
[31] = tested on: BT-549; assay: Growth inhibition of human BT549 cells at 10 uM after 48 hrs by sulforhodamine B assay; type: functional
[32] = tested on: Hs-578T; assay: Growth inhibition of human Hs 578T cells at 10 uM after 48 hrs by sulforhodamine B assay; type: functional
[33] = tested on: MDA-MB-231; assay: Growth inhibition of human MDA-MB-231 cells at 10 uM after 48 hrs by sulforhodamine B assay; type: functional
[34] = tested on: MCF7; assay: Growth inhibition of human MCF7 cells at 10 uM after 48 hrs by sulforhodamine B assay; type: functional; conditions: MCF7, 48 h, read-out: GI
[35] = tested on: DU-145; assay: Growth inhibition of human DU145 cells at 10 uM after 48 hrs by sulforhodamine B assay; type: functional
[36] = tested on: PC-3; assay: Growth inhibition of human PC3 cells at 10 uM after 48 hrs by sulforhodamine B assay; type: functional
[37] = tested on: UO-31; assay: Growth inhibition of human UO31 cells at 10 uM after 48 hrs by sulforhodamine B assay; type: functional; conditions: UO-31, 48 h, read-out: GI
[38] = tested on: TK-10; assay: Growth inhibition of human TK10 cells at 10 uM after 48 hrs by sulforhodamine B assay; type: functional
[39] = tested on: SN12C; assay: Growth inhibition of human SN12C cells at 10 uM after 48 hrs by sulforhodamine B assay; type: functional
[40] = tested on: RXF 393; assay: Growth inhibition of human RXF393 cells at 10 uM after 48 hrs by sulforhodamine B assay; type: functional
[41] = tested on: CAKI-1; assay: Growth inhibition of human CAKI-1 cells at 10 uM after 48 hrs by sulforhodamine B assay; type: functional; conditions: CAKI-1, 48 h, read-out: GI
[42] = tested on: ACHN; assay: Growth inhibition of human ACHN cells at 10 uM after 48 hrs by sulforhodamine B assay; type: functional
[43] = tested on: A498; assay: Growth inhibition of human A498 cells at 10 uM after 48 hrs by sulforhodamine B assay; type: functional
[44] = tested on: 786-0; assay: Growth inhibition of human 786-0 cells at 10 uM after 48 hrs by sulforhodamine B assay; type: functional
[45] = tested on: SK-OV-3; assay: Growth inhibition of human SKOV3 cells at 10 uM after 48 hrs by sulforhodamine B assay; type: functional
[46] = tested on: NCI/ADR-RES; assay: Growth inhibition of human NCI-ADR-RES cells at 10 uM after 48 hrs by sulforhodamine B assay; type: functional
[47] = tested on: OVCAR-8; assay: Growth inhibition of human OVCAR8 cells at 10 uM after 48 hrs by sulforhodamine B assay; type: functional; conditions: OVCAR-8, 48 h, read-out: GI
[48] = tested on: OVCAR-5; assay: Growth inhibition of human OVCAR5 cells at 10 uM after 48 hrs by sulforhodamine B assay; type: functional
[49] = tested on: OVCAR-4; assay: Growth inhibition of human OVCAR4 cells at 10 uM after 48 hrs by sulforhodamine B assay; type: functional
[50] = tested on: OVCAR-3; assay: Growth inhibition of human OVCAR3 cells at 10 uM after 48 hrs by sulforhodamine B assay; type: functional
[51] = tested on: IGROV-1; assay: Growth inhibition of human IGROV1 cells at 10 uM after 48 hrs by sulforhodamine B assay; type: functional
[52] = tested on: UACC-62; assay: Growth inhibition of human UACC62 cells at 10 uM after 48 hrs by sulforhodamine B assay; type: functional
[53] = tested on: UACC-257; assay: Growth inhibition of human UACC257 cells at 10 uM after 48 hrs by sulforhodamine B assay; type: functional
[54] = tested on: SK-MEL-5; assay: Growth inhibition of human SK-MEL-5 cells at 10 uM after 48 hrs by sulforhodamine B assay; type: functional
[55] = tested on: SK-MEL-28; assay: Growth inhibition of human SK-MEL-28 cells at 10 uM after 48 hrs by sulforhodamine B assay; type: functional, cell-based
[56] = tested on: SK-MEL-2; assay: Growth inhibition of human SK-MEL-2 cells at 10 uM after 48 hrs by sulforhodamine B assay; type: functional
[57] = tested on: MDA-MB-435; assay: Growth inhibition of human MDA-MB-435 cells at 10 uM after 48 hrs by sulforhodamine B assay; type: functional
[58] = tested on: M14; assay: Growth inhibition of human M14 cells at 10 uM after 48 hrs by sulforhodamine B assay; type: functional; conditions: M14, 48 h, read-out: GI

NS(=O)(=O)c1cnccc1N1CCN(c2ccccc2F)CC1
inhibition of growth at 10 µM [1]: 4%
growth inhibition (GI) [2]: inactive
growth inhibition (GI) [3]: inactive
growth inhibition (GI) [4]: inactive
growth inhibition (GI) [5]: inactive
growth inhibition (GI) [6]: inactive
growth inhibition (GI) [7]: inactive
growth inhibition (GI) [8]: inactive
growth inhibition (GI) [9]: inactive
growth inhibition (GI) [10]: inactive
growth inhibition (GI) [11]: inactive
inhibition of growth at 10 µM [12]: 1%
inhibition of growth at 10 µM [13]: 3%
growth inhibition (GI) [14]: inactive
growth inhibition (GI) [15]: inactive
growth inhibition (GI) [16]: inactive
growth inhibition (GI) [17]: inactive
inhibition of growth at 10 µM [18]: 7%
growth inhibition (GI) [19]: inactive
growth inhibition (GI) [20]: inactive
growth inhibition (GI) [21]: inactive
growth inhibition (GI) [22]: inactive
growth inhibition (GI) [23]: inactive
inhibition of growth at 10 µM [24]: 6%
growth inhibition (GI) [25]: inactive
inhibition of growth at 10 µM [26]: 2%
growth inhibition (GI) [27]: inactive
growth inhibition (GI) [28]: inactive
pKi [29]: 6.83
growth inhibition (GI) [30]: inactive
growth inhibition (GI) [31]: inactive
growth inhibition (GI) [32]: inactive
growth inhibition (GI) [33]: inactive
inhibition of growth at 10 µM [34]: 6%
growth inhibition (GI) [35]: inactive
growth inhibition (GI) [36]: inactive
inhibition of growth at 10 µM [37]: 13%
growth inhibition (GI) [38]: inactive
growth inhibition (GI) [39]: inactive
growth inhibition (GI) [40]: inactive
inhibition of growth at 10 µM [41]: 3%
growth inhibition (GI) [42]: inactive
growth inhibition (GI) [43]: inactive
growth inhibition (GI) [44]: inactive
growth inhibition (GI) [45]: inactive
growth inhibition (GI) [46]: inactive
inhibition of growth at 10 µM [47]: 2%
growth inhibition (GI) [48]: inactive
growth inhibition (GI) [49]: inactive
growth inhibition (GI) [50]: inactive
growth inhibition (GI) [51]: inactive
growth inhibition (GI) [52]: inactive
growth inhibition (GI) [53]: inactive
growth inhibition (GI) [54]: inactive
growth inhibition (GI) [55]: inactive
growth inhibition (GI) [56]: inactive
growth inhibition (GI) [57]: inactive
inhibition of growth at 10 µM [58]: 5%
